Experiment [1] deals with VEGFR2 (purified cytoplasmic domain KDR protein) (Homo sapiens (Human), UniProt P35968). Put plainly: VEGFR2 Kinase Assay (biochemical KDR kinase, poly-Glu-Tyr ELISA). The note with it: 2.7 μM ATP, 15 minute incubation at 30° C. As to the method:
VEGFR2 Kinase Assay […] Test compounds were reconstituted in 100% DMSO and added to the reaction to give a final DMSO concentration of 5%. […] Following a 15 minute incubation at 30° C., the reactions were washed 2 mls per well PBS-T. 100 μl of a monoclonal anti-phosphotyrosine antibody-peroxidase conjugate diluted 1:10,000 in PBS-T was added to the wells for 30 minutes. Following a 2 mls per well wash with PBS-Tween-20, 100 μl of 0-Phenylenediamine Dihydrochloride in phosphate-citrate buffer, containing urea hydrogen peroxide, was added to the wells for 7-10 minutes as a colorimetric substrate for the peroxidase. The reaction was terminated by the addition of 100 μl of 2.5N H2SO4 to each well and read using a microplate ELISA reader set at 492 nm. IC50 values for compound inhibition were calculated directly from graphs of optical density (arbitrary units) versus compound concentration following subtraction of blank values.
A general note: In an ELISA, binding on a coated surface is turned into a signal by an enzyme label.

Experiment [2] addresses PDGFRβ (purified cytoplasmic domain PDGFR-b protein) (Homo sapiens (Human), UniProt P09619). The experiment in a line: PDGFRβ Kinase Assay (biochemical, poly-Glu-Tyr ELISA). The note with it: 36 μM ATP, 60 minute incubation at 30° C. As to the method: Biochemical PDGFRβ kinase assays were performed in 96 well microtiter plates that were coated overnight with 75 μg of poly-Glu-Tyr (4:1) in 10 mM Phosphate Buffered Saline (PBS), pH 7.4. The coated plates were washed with 2 mls per well PBS+0.05% Tween-20 (PBS-T), blocked by incubation with PBS containing 1% BSA, then washed with 2 mls per well PBS-T prior to starting the reaction. Reactions were carried out in 100 μL reaction volumes containing 36 μM ATP in kinase buffer (50 mM Hepes buffer pH 7.4, 20 mM MgCl2, 0.1 mM MnCl2 and 0.2 mM Na3VO4). Test compounds were reconstituted in 100% DMSO and added to the reaction to give a final DMSO concentration of 5%. Reactions were initiated by the addition 20 ul per well of kinase buffer containing 200-300 ng purified cytoplasmic domain PDGFR-b protein (Millipore). Following a 60 minute incubation at 30° C., the reactions were washed 2 mls per well PBS-T. 100 μl of a monoclonal anti-phosphotyrosine antibody-peroxidase conjugate diluted 1:10,000 in PBS-T was added to the wells for 30 minutes. Following a 2 mls per well wash with PBS-Tween-20, 100 μl of 0-Phenylenediamine Dihydrochloride in phosphate-citrate buffer, containing urea hydrogen peroxide, was added to the wells for 7-10 minutes as a colorimetric substrate for the peroxidase. The reaction was terminated by the addition of 100 μl of 2.5N H2SO4 to each well and read using a microplate ELISA reader set at 492 nm. IC50 values for compound inhibition were calculated directly from graphs of optical density (arbitrary units) versus compound concentration following subtraction of blank values.

Experiment [3] has as its target recombinant human GST-PKR (Homo sapiens (Human), UniProt P19525). Put plainly: PKR KinaseGlo Assay. The note with it: 6.6 uM ATP, 10 minutes at room temperature. It is filed as biochemical. The protocol: Commercially available recombinant human GST-PKR (SignalChem, Canada; 1.5 uM-2 uM stock) is diluted to 500 nM in assay buffer (20 mM Tris-HCl, pH 7.2, 10 mM KCl, 10 mM MgCl2, 10% glycerol). Preactivated PKR is dispensed to 384/96-well black plates at 3.125/12.5 uls/well using the liquid handler Janus. Appropriate dilutions of inhibitors are added to 384/96-well plate followed by 6.6 uM ATP (final) and incubated for 10 minutes at room temperature. The remaining ATP/well is determined by adding 6.25/25 uls/well Kinase-Glo assay mix (Promega) and luminescence is measured on EnVision luminescence plate reader (integration time, 0.2 sec; Perkin-Elmer, Massachusetts, USA). The % inhibition for the compounds is calculated using ATP only (100% inhibition) and PKR+ATP (0% inhibition). […] values are determined by plotting % activity versus inhibitor concentration. Curves are fitted using Activity base XLfit (IDBS, UK) using the formula— • 4 Parameter Logistic Model fit=(A+((B−A)/(1+(10^((C−x)*D))))) inv=(C−(log(((B−A)/(y−A))−1)/D)) res=(y−fit)
For orientation: Kinase-Glo measures the ATP left after a reaction by luminescence.

pIC50: −log10 of the molar value. A value given as a limit tells only on which side of the number the result lay.

Broadly, the pIC50 is −log10 of the IC50, conventionally taken in molar units.

PDGFRβ (purified cytoplasmic domain PDGFR-b protein), sequence (P09619 554-1106): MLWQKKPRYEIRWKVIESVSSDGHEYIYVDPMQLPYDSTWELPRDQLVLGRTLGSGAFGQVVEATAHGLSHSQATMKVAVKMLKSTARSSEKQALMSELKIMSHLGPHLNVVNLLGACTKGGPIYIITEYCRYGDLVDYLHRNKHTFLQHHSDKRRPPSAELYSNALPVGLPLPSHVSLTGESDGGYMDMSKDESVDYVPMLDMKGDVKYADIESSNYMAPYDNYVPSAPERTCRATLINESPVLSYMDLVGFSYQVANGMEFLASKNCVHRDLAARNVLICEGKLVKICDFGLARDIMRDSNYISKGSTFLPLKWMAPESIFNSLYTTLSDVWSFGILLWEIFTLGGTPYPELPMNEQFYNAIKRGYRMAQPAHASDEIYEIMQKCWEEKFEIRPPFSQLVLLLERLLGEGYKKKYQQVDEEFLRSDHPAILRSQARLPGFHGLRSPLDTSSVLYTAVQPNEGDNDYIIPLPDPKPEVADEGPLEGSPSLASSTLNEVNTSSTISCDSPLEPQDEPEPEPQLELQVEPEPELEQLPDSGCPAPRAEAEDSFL
recombinant human GST-PKR, sequence (P19525 whole entry): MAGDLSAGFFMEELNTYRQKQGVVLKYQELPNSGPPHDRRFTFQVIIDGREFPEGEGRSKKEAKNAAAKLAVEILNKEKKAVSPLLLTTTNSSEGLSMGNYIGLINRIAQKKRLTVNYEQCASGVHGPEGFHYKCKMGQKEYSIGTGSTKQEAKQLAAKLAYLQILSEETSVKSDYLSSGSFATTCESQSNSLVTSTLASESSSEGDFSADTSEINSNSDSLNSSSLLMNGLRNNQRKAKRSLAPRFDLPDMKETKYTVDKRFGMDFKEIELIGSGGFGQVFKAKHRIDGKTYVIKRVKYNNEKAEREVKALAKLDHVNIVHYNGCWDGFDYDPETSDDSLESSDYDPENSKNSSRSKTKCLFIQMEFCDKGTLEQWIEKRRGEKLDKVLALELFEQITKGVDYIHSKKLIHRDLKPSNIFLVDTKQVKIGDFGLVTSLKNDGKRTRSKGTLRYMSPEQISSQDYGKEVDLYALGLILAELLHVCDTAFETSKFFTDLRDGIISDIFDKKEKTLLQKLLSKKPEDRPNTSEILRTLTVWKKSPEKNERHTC
VEGFR2 (purified cytoplasmic domain KDR protein), sequence (P35968 786-1356): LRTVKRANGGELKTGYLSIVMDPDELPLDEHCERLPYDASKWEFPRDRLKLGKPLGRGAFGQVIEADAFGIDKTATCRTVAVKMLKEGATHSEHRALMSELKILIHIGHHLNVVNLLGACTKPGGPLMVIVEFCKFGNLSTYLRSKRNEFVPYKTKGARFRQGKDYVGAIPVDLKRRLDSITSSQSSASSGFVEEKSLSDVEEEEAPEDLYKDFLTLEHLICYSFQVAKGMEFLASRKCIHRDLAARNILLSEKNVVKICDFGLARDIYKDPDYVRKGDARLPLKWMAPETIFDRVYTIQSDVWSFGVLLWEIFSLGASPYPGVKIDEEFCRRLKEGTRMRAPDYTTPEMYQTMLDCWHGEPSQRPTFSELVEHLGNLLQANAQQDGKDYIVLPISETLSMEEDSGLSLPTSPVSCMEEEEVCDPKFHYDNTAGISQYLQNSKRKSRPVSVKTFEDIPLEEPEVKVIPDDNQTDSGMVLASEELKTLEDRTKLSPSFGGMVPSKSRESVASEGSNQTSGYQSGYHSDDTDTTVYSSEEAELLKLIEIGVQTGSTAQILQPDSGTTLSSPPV

Regarding `COc1ccccc1Nc1ncc2c(n1)CCN(C(=O)c1cccnc1)C2` [Example 7, N-(2-methoxyphenyl)-6-(pyridin-3-ylcarbonyl)-5,6,7,8-tetrahydropyrido[4,3-d]pyrimidin-2-amine], the figures for the pIC50 in experiment [1] and in experiment [2] were 8.00 and 6.61, respectively. On to “N-phenyl-6-(pyridin-3-ylcarbonyl)-5,6,7,8-tetrahydropyrido[4,3-d]pyrimidin-2-amine [Example 2]”, for which the figures for the negative logarithm of the IC50 (pIC50) in experiment [1] and in experiment [3] were below 4.00 and 7.05, respectively. For `COc1cc(Nc2ncc3c(n2)CCN(C(=O)c2cc(C)nn2C)C3)cc(OC)c1OC` [Example 12, 6-[(1,3-dimethyl-1H-pyrazol-5-yl)carbonyl]-N-(3,4,5-trimethoxyphenyl)-5,6,7,8-tetrahydropyrido[4,3-d]pyrimidin-2-amine], the pIC50 in experiment [1] was 8.30; in experiment [2] it was 7.72. As for `COc1cc(Nc2ncc3c(n2)CCN(C(=O)c2cccnc2)C3)cc(OC)c1` [Example 17, N-(3,5-dimethoxyphenyl)-6-(pyridin-3-ylcarbonyl)-5,6,7,8-tetrahydropyrido[4,3-d]pyrimidin-2-amine], in experiment [3], the negative-log IC50 (pIC50) was 6.89.

As for `COc1cc(Nc2ncc3c(n2)CCN(C(=O)c2occc2C)C3)cc(OC)c1OC` [Example 11, 6-(3-methyl-2-furoyl)-N-(3,4,5-trimethoxyphenyl)-5,6,7,8-tetrahydropyrido[4,3-d]pyrimidin-2-amine], the pIC50 in experiment [1] is 8.22; in experiment [2], 6.62. For `COc1cc(Nc2ncc3c(n2)CCN(C(=O)c2ccccn2)C3)cc(OC)c1OC` [Example 15, 6-(pyridin-2-ylcarbonyl)-N-(3,4,5-trimethoxyphenyl)-5,6,7,8-tetrahydropyrido[4,3-d]pyrimidin-2-amine], the pIC50 in experiment [1] was 5.73; in experiment [3], 5.55.

Take `COc1ccc(Nc2ncc3c(n2)CCN(C(=O)c2cccnc2)C3)cc1OC` [Example 16, N-(3,4-dimethoxyphenyl)-6-(pyridin-3-ylcarbonyl)-5,6,7,8-tetrahydropyrido[4,3-d]pyrimidin-2-amine]: the pIC50 in experiment [3] was 6.75. As to `O=C(Nc1cccnc1)N1CCc2nc(Nc3ccccc3)ncc2C1` [Example 3, 2-anilino-N-pyridin-3-yl-7,8-dihydropyrido[4,3-d]pyrimidine-6(5H)-carboxamide], the values for the pIC50 in experiment [1] and in experiment [3] were below 5.00 and 6.55, respectively. As to `COc1ccc(Nc2ncc3c(n2)CCN(C(=O)c2cccnc2)C3)cc1` [Example 5, N-(4-methoxyphenyl)-6-(pyridin-3-ylcarbonyl)-5,6,7,8-tetrahydropyrido[4,3-d]pyrimidin-2-amine], the figures for the pIC50 in experiment [1], in experiment [2] and in experiment [3] were 8.30, 7.77 and below 4.40, respectively. In the case of `COc1cc(Nc2ncc3c(n2)CCN(C(=O)c2cccs2)C3)cc(OC)c1OC` [Example 13, 6-(2-thienylcarbonyl)-N-(3,4,5-trimethoxyphenyl)-5,6,7,8-tetrahydropyrido[4,3-d]pyrimidin-2-amine], the pIC50 in experiment [1] is 8.10. For `Cn1nccc1Nc1ncc2c(n1)CCN(C(=O)c1cccnc1)C2` [Example 8, N-(1-methyl-1H-pyrazol-5-yl)-6-(pyridin-3-ylcarbonyl)-5,6,7,8-tetrahydropyrido[4,3-d]pyrimidin-2-amine], the pIC50 in experiment [1] was 7.80; in experiment [2], 6.89. For `COc1cccc(Nc2ncc3c(n2)CCN(C(=O)c2cccnc2)C3)c1` [Example 6, N-(3-methoxyphenyl)-6-(pyridin-3-ylcarbonyl)-5,6,7,8-tetrahydropyrido[4,3-d]pyrimidin-2-amine], the negative-log IC50 (pIC50) in experiment [1] was 6.35; in experiment [3] it was below 4.40.

These data come from patent US9296747B1, “Piperidylpyrimidine derivatives as modulators of protein kinase inhibitors and of vascular endothelial growth factor receptor 2” (Allergan, Inc., priority 2014, dated 2016).
